Values belong to the molecule of their own block, whether it stands above or below them.
Key:
[1] = tested on: haloperidol-induced deficits in locomotor activity in mice; assay: Haloperidol-induced hypolocomotion model; assay type: in vivo; settings: oral, dose of 30 mg/kg
Source text: Haloperidol-Induced Hypolocomotion Model
This approach is also considered a valid method for screening drugs with potential antiparkinsonian effects. Thus, the ability of novel adenosine antagonists to block haloperidol-induced deficits in locomotor activity in mice can be used to assess both in vivo and potential antiparkinsonian efficacy.
Female TO mice (25-30 g) obtained from Harlan, UK, are used for all experiments. Animals are housed in groups of 8 [cage size—40 (width)×40 (length)×20 (height) cm] under 12 h light/dark cycle (lights on 08:00 hr), in a temperature (20±2° C.) and humidity (55±15%) controlled environment. Animals have free access to food and water, and are allowed at least 3 days to acclimatize after delivery before experimental use.
Liquid injectable haloperidol (1 ml Serenance ampoules from Baker Norton, Harlow, Essex, each containing haloperidol BP 5 mg) are diluted to a final concentration of 0.02 mg/ml using saline. Test compounds are typically prepared as aqueous suspensions in 1% methyl cellulose. All compounds are administered orally in a volume of 10 ml/kg.
1.5 h before testing, mice are administered 0.2 mg/kg haloperidol, a dose that reduces baseline locomotor activity by at least 50%. […] Horizontal locomotor activity is determined by placing the cages within a frame containing a 4×7 array of photocells linked to a computer, which tabulates beam breaks. […]

[2] = molecular target: human adenosine A2A receptors (Homo sapiens, UniProt P29274); assay: Binding affinities at hA2A receptors, displacement of [3H]-CGS 21680; settings: human adenosine A2A receptor, [3H]-CGS 21680 displacement
human adenosine A2A receptors, sequence (P29274 whole entry): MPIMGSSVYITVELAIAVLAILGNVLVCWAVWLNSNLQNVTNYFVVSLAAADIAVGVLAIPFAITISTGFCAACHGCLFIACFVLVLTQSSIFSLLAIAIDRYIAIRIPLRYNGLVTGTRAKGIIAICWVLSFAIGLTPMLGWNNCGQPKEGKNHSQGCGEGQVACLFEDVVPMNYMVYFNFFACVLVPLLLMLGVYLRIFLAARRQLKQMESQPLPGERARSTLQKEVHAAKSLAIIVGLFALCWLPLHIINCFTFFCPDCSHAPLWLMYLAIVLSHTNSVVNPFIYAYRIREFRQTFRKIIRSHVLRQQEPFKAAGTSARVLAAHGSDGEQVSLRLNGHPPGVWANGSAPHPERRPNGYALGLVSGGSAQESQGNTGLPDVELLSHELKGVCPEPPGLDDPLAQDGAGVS
Source text: Adenosine Receptor Binding Binding Affinities at hA2A Receptors
The compounds were examined in an assay measuring in vitro binding to human adenosine A2A receptors by determining the displacement of the adenosine A2A receptor selective radioligand [^3H]-CGS 21680 using standard techniques.

cataleptic responses = settings: cited from earlier work
Parkinsonian patients = settings: 15 Parkinsonian patients, up to 12 weeks, 150 mg/day oral; cited from earlier work

Ki [2]: < 50 nM
Compound: Nc1nc(C(=O)NCc2ccccc2F)cc(-c2ccco2)n1 [Example 1, 2-Amino-N-(2-fluorobenzyl)-6-(2-furyl)pyrimidine-4-carboxamide]
activity in haloperidol-induced hypolocomotion model [1]: orally active

Compound: CCCn1c(=O)c2c(nc(/C=C/c3ccc(OC)c(OC)c3)n2C)n(CCC)c1=O [KF 17837, (E)-8-(3,4-dimethoxystyryl)-1,3-dipropyl-7-methylxanthine]
anticataleptic effects of a subthreshold dose of L-DOPA plus benserazide (cataleptic responses; in vivo): potentiated | catalepsy induced by haloperidol and reserpine (cataleptic responses; in vivo): reduced | cataleptic responses induced by intracerebroventricular CGS 21680 (cataleptic responses; oral administration): significantly ameliorated

Compound: Cn1c(=O)c2[nH]cnc2n(C)c1=O [theophylline, 1,3-dimethylxanthine]
mean objective disability scores (Parkinsonian patients): significant improvements

Reference: patent US7875600B2, “Pyrimidine compounds as purine receptor antagonist” (Vernalis (R&D) Limited, priority 2004, dated 2011)
